Results: ChEMBL document CHEMBL5291721, “A preclinical secondary pharmacology resource illuminates target-adverse drug reaction associations of marketed drugs” (Nat Commun, 2023)

Columns and labels:
[1] = target: T1, Alpha-2B adrenergic receptor (Homo sapiens, UniProt P18089)
T1 sequence (P18089 whole entry): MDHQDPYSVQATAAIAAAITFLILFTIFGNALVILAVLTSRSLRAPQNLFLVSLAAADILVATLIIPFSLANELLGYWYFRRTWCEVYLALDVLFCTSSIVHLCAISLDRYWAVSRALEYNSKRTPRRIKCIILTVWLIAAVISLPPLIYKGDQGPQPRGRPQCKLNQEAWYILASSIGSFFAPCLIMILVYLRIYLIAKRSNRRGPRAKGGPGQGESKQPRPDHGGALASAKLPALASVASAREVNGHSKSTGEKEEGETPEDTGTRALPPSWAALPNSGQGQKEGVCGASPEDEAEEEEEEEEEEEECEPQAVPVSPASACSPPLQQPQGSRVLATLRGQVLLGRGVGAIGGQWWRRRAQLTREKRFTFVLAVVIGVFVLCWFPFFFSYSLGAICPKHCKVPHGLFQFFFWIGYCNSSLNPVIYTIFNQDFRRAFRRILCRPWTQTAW

Cannabinoid receptor 1 = Cannabinoid receptor 1 (Homo sapiens, UniProt P21554)
Histamine H1 receptor = Histamine H1 receptor (Homo sapiens, UniProt P35367)
[2] = target: T2, Alpha-1A adrenergic receptor (Homo sapiens, UniProt P35348); type: functional, cell-based
T2 sequence (P35348 whole entry): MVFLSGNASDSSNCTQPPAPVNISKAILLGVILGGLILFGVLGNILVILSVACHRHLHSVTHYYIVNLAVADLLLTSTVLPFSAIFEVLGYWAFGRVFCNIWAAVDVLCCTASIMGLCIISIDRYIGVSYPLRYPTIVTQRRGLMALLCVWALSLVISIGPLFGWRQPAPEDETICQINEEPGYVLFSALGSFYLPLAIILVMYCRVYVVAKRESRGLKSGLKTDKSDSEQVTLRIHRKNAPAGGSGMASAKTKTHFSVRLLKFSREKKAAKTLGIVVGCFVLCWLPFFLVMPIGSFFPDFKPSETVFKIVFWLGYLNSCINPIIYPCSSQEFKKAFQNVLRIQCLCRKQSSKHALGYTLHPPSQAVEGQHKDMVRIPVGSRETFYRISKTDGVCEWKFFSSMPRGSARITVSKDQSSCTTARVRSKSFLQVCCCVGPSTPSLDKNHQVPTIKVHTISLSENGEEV

Progesterone receptor = target: T3, Progesterone receptor (Homo sapiens, UniProt P06401); type: functional
T3 sequence (P06401 whole entry): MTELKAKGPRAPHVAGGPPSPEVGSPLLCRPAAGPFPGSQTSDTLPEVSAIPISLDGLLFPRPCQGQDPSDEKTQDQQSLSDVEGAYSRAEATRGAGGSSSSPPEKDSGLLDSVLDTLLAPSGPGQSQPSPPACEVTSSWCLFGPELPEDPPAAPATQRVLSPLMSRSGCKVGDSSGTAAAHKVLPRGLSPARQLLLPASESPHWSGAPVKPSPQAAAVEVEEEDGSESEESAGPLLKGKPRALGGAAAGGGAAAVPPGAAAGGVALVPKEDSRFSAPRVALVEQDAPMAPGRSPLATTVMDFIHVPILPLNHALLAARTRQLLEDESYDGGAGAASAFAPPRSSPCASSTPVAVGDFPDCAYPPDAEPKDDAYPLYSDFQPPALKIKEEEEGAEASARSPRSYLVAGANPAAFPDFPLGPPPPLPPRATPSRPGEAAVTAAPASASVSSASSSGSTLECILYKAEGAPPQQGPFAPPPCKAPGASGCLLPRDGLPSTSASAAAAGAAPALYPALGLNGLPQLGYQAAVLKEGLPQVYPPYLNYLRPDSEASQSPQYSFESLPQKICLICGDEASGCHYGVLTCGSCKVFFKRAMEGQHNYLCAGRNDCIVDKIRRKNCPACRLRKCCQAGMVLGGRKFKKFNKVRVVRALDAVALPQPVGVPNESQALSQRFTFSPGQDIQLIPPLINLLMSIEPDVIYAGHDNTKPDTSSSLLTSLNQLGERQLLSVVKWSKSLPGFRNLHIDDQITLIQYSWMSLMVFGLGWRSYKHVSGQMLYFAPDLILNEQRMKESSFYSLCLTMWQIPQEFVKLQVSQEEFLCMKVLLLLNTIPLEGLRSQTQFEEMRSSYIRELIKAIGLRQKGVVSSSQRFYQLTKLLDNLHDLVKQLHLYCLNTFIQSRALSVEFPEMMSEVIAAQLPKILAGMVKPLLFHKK

[3] = target: 5-hydroxytryptamine receptor 2A (Homo sapiens, UniProt P28223); type: functional, cell-based
[4] = target: T4, Muscarinic acetylcholine receptor M2 (Homo sapiens, UniProt P08172); type: functional, cell-based
T4 sequence (P08172 whole entry): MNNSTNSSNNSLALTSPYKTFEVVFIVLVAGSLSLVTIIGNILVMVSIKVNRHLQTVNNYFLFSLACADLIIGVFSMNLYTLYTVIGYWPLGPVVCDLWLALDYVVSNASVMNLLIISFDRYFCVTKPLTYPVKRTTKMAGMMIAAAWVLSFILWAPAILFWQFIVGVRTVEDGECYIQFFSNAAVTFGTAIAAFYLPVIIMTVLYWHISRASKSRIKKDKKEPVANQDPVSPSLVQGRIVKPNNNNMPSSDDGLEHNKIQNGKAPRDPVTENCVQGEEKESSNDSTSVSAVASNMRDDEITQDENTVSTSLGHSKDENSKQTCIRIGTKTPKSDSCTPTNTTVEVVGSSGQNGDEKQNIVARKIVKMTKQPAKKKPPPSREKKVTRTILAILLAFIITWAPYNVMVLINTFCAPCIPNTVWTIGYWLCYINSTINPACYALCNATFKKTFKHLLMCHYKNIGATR

Mu-type opioid receptor = Mu-type opioid receptor (Homo sapiens, UniProt P35372); test: biochemical; type: functional
[5] = target: T4, Muscarinic acetylcholine receptor M2; type: functional, cell-based; remark: listed apart in the source
Also: assay procedure not described here.

Histamine H1 receptor, sequence (P35367 whole entry): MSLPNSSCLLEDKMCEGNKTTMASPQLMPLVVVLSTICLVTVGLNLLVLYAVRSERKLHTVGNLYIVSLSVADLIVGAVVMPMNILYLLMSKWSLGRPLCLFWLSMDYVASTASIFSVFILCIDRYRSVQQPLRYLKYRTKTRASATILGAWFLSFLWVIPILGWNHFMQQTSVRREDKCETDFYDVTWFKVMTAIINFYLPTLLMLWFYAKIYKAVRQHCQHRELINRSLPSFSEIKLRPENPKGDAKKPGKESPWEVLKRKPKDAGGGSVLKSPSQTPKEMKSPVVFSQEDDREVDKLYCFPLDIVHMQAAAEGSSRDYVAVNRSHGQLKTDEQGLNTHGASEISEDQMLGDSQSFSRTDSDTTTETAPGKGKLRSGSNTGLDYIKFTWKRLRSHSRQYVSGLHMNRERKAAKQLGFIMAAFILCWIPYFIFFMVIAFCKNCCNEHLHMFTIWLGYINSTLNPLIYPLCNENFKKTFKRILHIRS
Cannabinoid receptor 1, sequence (P21554 whole entry): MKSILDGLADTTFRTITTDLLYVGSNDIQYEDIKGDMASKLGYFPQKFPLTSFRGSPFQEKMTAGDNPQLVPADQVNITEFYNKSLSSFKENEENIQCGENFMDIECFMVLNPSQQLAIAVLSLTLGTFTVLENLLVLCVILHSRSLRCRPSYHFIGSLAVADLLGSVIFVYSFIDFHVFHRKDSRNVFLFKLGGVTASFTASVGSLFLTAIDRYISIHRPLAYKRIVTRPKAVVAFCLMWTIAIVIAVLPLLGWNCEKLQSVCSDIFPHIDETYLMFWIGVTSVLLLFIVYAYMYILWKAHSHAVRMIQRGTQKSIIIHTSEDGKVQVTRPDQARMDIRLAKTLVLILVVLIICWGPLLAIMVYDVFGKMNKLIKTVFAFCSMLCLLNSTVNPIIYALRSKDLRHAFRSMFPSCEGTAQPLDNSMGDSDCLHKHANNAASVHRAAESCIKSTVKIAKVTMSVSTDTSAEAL
5-hydroxytryptamine receptor 2A, sequence (P28223 whole entry): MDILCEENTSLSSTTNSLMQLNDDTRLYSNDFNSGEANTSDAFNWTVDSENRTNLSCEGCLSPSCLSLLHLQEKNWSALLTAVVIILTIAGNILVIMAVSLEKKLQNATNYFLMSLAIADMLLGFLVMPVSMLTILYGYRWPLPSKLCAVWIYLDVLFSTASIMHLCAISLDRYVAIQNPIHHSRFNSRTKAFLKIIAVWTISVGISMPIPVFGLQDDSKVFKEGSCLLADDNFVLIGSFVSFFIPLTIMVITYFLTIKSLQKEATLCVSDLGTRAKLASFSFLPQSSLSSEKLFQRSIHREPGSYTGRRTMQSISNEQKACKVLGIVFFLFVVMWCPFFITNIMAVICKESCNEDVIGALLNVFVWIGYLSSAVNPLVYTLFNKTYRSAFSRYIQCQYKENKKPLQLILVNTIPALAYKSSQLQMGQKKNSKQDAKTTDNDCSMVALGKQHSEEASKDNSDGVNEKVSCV
Mu-type opioid receptor, sequence (P35372 whole entry): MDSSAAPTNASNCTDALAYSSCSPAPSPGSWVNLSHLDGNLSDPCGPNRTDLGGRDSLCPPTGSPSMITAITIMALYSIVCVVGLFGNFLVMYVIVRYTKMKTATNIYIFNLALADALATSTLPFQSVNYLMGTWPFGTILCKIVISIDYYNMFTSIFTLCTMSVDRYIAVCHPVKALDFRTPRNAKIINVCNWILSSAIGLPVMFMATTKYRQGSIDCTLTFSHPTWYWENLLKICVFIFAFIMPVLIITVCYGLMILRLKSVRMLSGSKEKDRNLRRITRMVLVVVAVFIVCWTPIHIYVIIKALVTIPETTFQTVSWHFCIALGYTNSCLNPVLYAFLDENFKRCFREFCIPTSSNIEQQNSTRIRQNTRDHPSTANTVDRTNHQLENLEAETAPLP

Row | AC50 [1] | AC50 (Cannabinoid receptor 1) | AC50 (Histamine H1 receptor) | AC50 (Progesterone receptor) | AC50 [3] | AC50 [4] | AC50 (Mu-type opioid receptor) | AC50 [5] | Structure (SMILES) | AC50 [2]
1 | > 30 µM | > 30 µM | > 30 µM | > 30 µM | > 30 µM | > 30 µM | > 30 µM | > 30 µM | CN(C)c1cc(NC(=O)CNC(C)(C)C)c(O)c2c1C[C@H]1C[C@H]3[C@H](N(C)C)C(O)=C(C(N)=O)C(=O)[C@@]3(O)C(O)=C1C2=O [TIGECYCLINE] | –
2 | 0.32 µM | > 10 µM | 0.028 µM | > 10 µM | 0.51 µM | > 10 µM | > 30 µM | > 10 µM | OCCN1CCN(CC/C=C2/c3ccccc3Sc3ccc(Cl)cc32)CC1 [ZUCLOPENTHIXOL] | –

Row | Structure (SMILES) | AC50 [1] | AC50 (Cannabinoid receptor 1) | AC50 (Histamine H1 receptor) | AC50 (Progesterone receptor) | AC50 [3] | AC50 [4] | AC50 (Mu-type opioid receptor) | AC50 [5] | AC50 [2]
3 | CC(=O)OCC[N+](C)(C)C [ACETYLCHOLINE] | > 10 µM | > 10 µM | > 10 µM | 29 µM | – | – | – | – | > 30 µM
